In patent publication US8722910B2, “Diyne compositions” (Evolva AG, priority 2009, dated 2014):
Values after ≈ are worked out from the molar mass of the structure shown.

What was measured:
[1] = tested on: C. albicans, Fluconazole, Voriconazole, Itraconazole and/or Caspofungin resistant isolates; experiment: Susceptibility of resistant clinical isolates (MIC, broth dilution); assay type: cell-based; settings: for MIC90: Candida albicans
[2] = tested on: C. glabrata, Fluconazole, Voriconazole, Itraconazole and/or Caspofungin resistant isolates; experiment: as above; assay type: cell-based; settings: for MIC90: Nakaseomyces glabratus
Description: The efficacy of compound IV″ was investigated on 563 clinical isolates of 33 human fungal pathogens. […] For species with n≧10, the MIC90 (MIC, minimal inhibitory concentration) is given as ng/ml. For species with n≦10, the MIC range is given as ng/ml. 24 h and 48 h reads are indicated (Table 1).
The MIC90 was calculated for the indicated species.

## O=C([O-])CCCCCCC/C=C\C#CC#Cc1ccco1.[K+] [Compound IV″, potassium (Z)-14-(furan-2-yl)tetradeca-9-en-11,13-diynoate]
[1]
  MIC90: 0.0025 µg/mL
[1]; resistant C. albicans isolates (n = 20), MIC90, 48 h
  MIC90/MIC range 48 h: 0.0025 µg/mL
[2]
  MIC90: 0.02 µg/mL
[2]; resistant C. glabrata isolates (n = 21), MIC90, 48 h
  MIC90/MIC range 48 h: 0.02 µg/mL

## C[C@@H](c1ncncc1F)[C@](O)(Cn1cncn1)c1ccc(F)cc1F [Voriconazole]
[1]
  MIC90: > 0.5 µg/mL
[2]
  MIC90: 0.5 µg/mL (≈ 1.43 µM)
